The values below come from patent US8242118B2, “Arylsulfonamide derivatives for use as CCR3 antagonists in the treatment of inflammatory and immunological disorders” (Axikin Pharmaceuticals Inc., priority 2001, dated 2012).

One data set concerns the target T1, Human CCR3 (Homo sapiens, UniProt P51677).
T1 construct: The cloned CCR3 cDNA was constructed with pcDNA3 vector and transfected into a IC562 cell line; expressed in transfected cells
T1 sequence (P51677 1-355): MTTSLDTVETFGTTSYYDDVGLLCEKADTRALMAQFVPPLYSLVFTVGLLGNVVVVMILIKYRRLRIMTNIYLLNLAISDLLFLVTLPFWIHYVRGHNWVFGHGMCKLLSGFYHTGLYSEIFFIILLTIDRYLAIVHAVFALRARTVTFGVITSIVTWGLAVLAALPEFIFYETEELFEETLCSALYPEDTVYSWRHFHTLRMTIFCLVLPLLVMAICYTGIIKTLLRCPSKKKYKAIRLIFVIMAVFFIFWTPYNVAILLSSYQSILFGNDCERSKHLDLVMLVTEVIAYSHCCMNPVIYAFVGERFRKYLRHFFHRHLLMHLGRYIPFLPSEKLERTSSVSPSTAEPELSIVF
Put plainly: Receptor binding assay (RBA), [125I]-eotaxin. The note with it: human CCR3-transformed K562 cells, 0.1 nM [125I]-eotaxin; compounds of about 40 to 90% purity; read-out: Activity grade RBA (IC50 class). A digest of the protocol:
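Butyrate-pretreated (5 mM, 20-24 h) CCR3-transfected K562 cells incubated 1 h at room temperature with compound and 0.1 nM final [125I]-eotaxin in HEPES pH 7.6 buffer; bound radioactivity counted after filtration. Non-specific binding with 500 nM unlabeled eotaxin; IC50 from inhibition curve.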

On to `Cc1cc(C)cc(Oc2ccc([N+](=O)[O-])cc2S(=O)(=O)N2CCN(CC3CCCO3)CC2)c1` (centres unmarked) [Example 4-26], for which the melting point is 178 to 179 °C. In addition, the IC50 on Human CCR3 was under 1000 nM.

In the case of `Cc1cc(C)cc(Oc2ccc(S(=O)(=O)N(C)C)cc2S(=O)(=O)N2CCNCC2)c1.Cl` [Example 10-2], the melting point lay within 242 to 247 °C. For the same compound, on Human CCR3, the IC50 was 1000 to 10000 nM.

In the case of `CN(C)CCN(C)S(=O)(=O)c1cc([N+](=O)[O-])ccc1Oc1cc(Cl)cc(Cl)c1` [Example 4-20], the melting point was in the range of 105 to 107 °C. In addition, the IC50 at Human CCR3 was under 1000 nM.

In turn, `CN(C)CCN(C)S(=O)(=O)c1cc([N+](=O)[O-])ccc1Sc1cc(Cl)cc(Cl)c1` [Example 2-23] gave a melting point of 102 °C. For the same compound, the IC50 at Human CCR3 was under 1000 nM.

In turn, `Cc1cc(C)cc(Oc2ccc([N+](=O)[O-])cc2S(=O)(=O)N2CC[C@@H](N(C)C)C2)c1` [Example 4-13] returned a melting point of 115 to 116 °C. Besides, the IC50 on Human CCR3 was under 1000 nM.

On to `CCC(C)N1CCN(S(=O)(=O)c2cc([N+](=O)[O-])ccc2Oc2cc(C)cc(C)c2)CC1` (centres unmarked) [Example 4-16], for which the melting point fell in the range of 134 to 135 °C. On Human CCR3, the IC50 was under 1000 nM.

With `CCN1CCN(S(=O)(=O)c2cc(Cl)ccc2Oc2cc(C)cc(C)c2)CC1` [Example 5-4], the melting point is 120 to 122 °C. Moreover, the IC50 at Human CCR3 is under 1000 nM.

For orientation: IC50 means the midpoint of a concentration-inhibition curve. What is called melting point is the temperature, or range, at which the solid turns liquid.
